This is an account of results in US8791158B2, “Methods of treating meibomian gland dysfunction” (GTX, Inc., priority 2010, dated 2014).

Series [1] deals with acute orchiectomized (ORX) rabbit model. Kind of series: Oil-Red-O lipid staining score of Meibomian gland (eyelid) sections, Example 4. The series is classed as in vivo. The settings on record: ORX rabbits, topical 2.5 mg/kg; scale 0-4 by % cells stained; sham 3.75, ORX vehicle 3.2. On the procedure: At the end of the study, the animals were euthanatized. The left harderian and Meibomian glands were collected for lipid analysis and snap frozen using an ethanol:dry ice bath. Samples were stored at −80° C. until shipment for analysis. The right eyelids were embedded in OCT medium and shipped to Paragon Biosciences (Washington D.C.) for histology and Oil-red-O quantification of lipids. Images of three separate fields were taken from each eyelid at random and the amount of cells staining red in each field was scored using commercially available software. A scoring scheme was adopted with a scale of 0-4 to evaluate the staining intensities with 0=<1% cells stained, 1+ for 2-5% of cells stained, 2+=6-10% stain, 3+=11-20% staining, 4+ for >21% cells stained.
Oil-Red-O is a lipophilic dye that is commonly used to stain lipid containing cells in histological sections. The amount of Oil-Red-O stain in each section is proportional to the number of cells synthesizing or storing lipid. A relative scoring system was adopted to evaluate the differences in lipid content of the Meibomian gland sections from treated and untreated animals in the study. […] Upon treatment with Compound 2, the lipid staining was seen to increase to that of the intact animals (score=3.8).

Series [2] can be described thus: Pharmacokinetic analysis of rabbit plasma after topical dosing, Example 4. The series is classed as in vivo. As to conditions: topical or ocular, 2.5 mg/kg, topical 2.5 mg/kg, day 11 of dosing, read-out: Mean plasma concentrations over time (AUC). The protocol:
Immediately after the animals had recovered from anesthesia, they were dosed with the appropriate test articles as indicated above. Drug dosing was done once daily for 14 d. Blood samples were collected at 30, 60, 120, 240 and 1440 minutes after dose administration on day 11 for pharmacokinetic analyses. Plasma was separated for HPLC analysis of parent drug concentrations. Tears were collected using Schirmer tear strips (Alcon, Tex.) on day 0 before surgery and 24 hours after the last administration of drug (day 15). The tears were stored at −80° C. until shipment for analysis. […] Area under the curve for each individual peak was determined using the GC ChemStation software. To normalize for the tear content, the lipid composition was expressed as a ratio of the lipid that was most affected by castration (palmitate) to one which remained relatively constant (stearate).
Plasma samples collected after dosing on day 11 were analyzed using an LCMS/MS method. […]
Mobile phase consisted of 60% acetonitrile, 40% water and 0.1% formic acid. […] The plasma concentration—time data were analyzed by non-compartmental methods using WinNonlin (Version 3.1, Pharsight Corporation, Mountain View, Calif., USA). The area under the plasma concentration—time curve from time zero to infinity (AUC) was calculated by the trapezoidal rule with extrapolation to time infinity. […]

For `C[C@](O)(COc1ccc(C#N)cc1)C(=O)Nc1ccc(C#N)c(C(F)(F)F)c1` [Compound 1, (S)—N-(4-Cyano-3-(trifluoromethyl)phenyl)-3-(4-cyanophenoxy)-2-hydroxy-2-methylpropanamide], in series [1], the Oil-Red-O score worked out at 3.4. In addition, the AUC in series [2] was 25.2 µM·h.

With `C[C@](O)(COc1ccc(C#N)c(F)c1)C(=O)Nc1ccc(C#N)c(C(F)(F)F)c1` [Compound 2, (S)—N-(4-cyano-3-(trifluoromethyl)phenyl)-3-(4-cyano-3-fluorophenoxy)-2-hydroxy-2-methylpropanamide], in series [1], the Oil-Red-O score is on record as 3.8. Moreover, the AUC in series [2] was 12.2 µM·h.
